# Data: patent US10500198B2, “Bis-benzylidine piperidone proteasome inhibitor with anticancer activity” (The Johns Hopkins University, priority 2013, dated 2019)
# pIC50: −log10 of the molar value.
# How the values were obtained:
# [1] = tested on: polyubiquitinated proteins, p53 and p21 in HeLa cells; assay: Immunoblot of HeLa cell lysates; format: cell-based, human
# Method: FIGS. 1 A-D show percent cell viability of RPMI-8226, ANBL6, and their respective in vitro selected bortezomib-resistant cell lines RPMI-8226-V10R and ANBL6-V10R as a function of 48 hr treatment with the indicated compounds. FIGS. 1 E-H show percent cell viability of indicated MM cell lines as a function of 48 hr treatment with the indicated compounds. […] Actin was used as a loading control. […] In FIG. 9C-E, purified 20S proteasomes were treated for 30 min with or without compounds (1 μM) prior to the addition of the specific fluorogenic substrate for chymotryptic (9C), tryptic (9D) or PGPH (9E) hydrolytic proteasome capacities. Mean±SD fluorescence associated with AMC released from the substrate was measured at 45 min. […] DMSO was added to all samples to a final concentration of 0.1% (upper panel). The effect of DMSO is highlighted by including ubiquitin—AMC (0.5 μM) hydrolysis with 2 nM UCH37 lacking DMSO (orange, bottom panel). In FIG. 9H, purified 19S RP (500 nM) in buffer was treated with corresponding compounds 30 min at 37° C. and AMC cleavage was measured with a fluorometer for 20 min. Ubal was used as a positive control.
# Total cellular protein (10-20 μg) from each sample was subjected to SDS-PAGE, transferred to PVDF membranes and analyzed by Western blot. […]
# [2] = tested on: TNFα-induced NFκB activation in 293 cells; assay: NFκB/FL reporter assay; format: cell-based; details: TNFα 10 ng/ml, 7 h
# Method: 293 cells transiently transfected with either NFκB/FL (firefly luciferase reporter construct under control of an NFκB-driven promoter) or control CMV promoter-driven FL reporter construct were treated with compounds and TNFα (10 ng/ml) for 7 h. Upon the addition of luciferin, bioluminescence was measured in cell lysates using a luminometer. Results can be seen in FIG. 20.
# 293 cells transiently transfected with either NFκB/FL or control FL reporter genes were treated with compounds and TNFα (10 ng/ml) for 7 h. Upon the addition of luciferin, bioluminescence was measured in cell lysates using a luminometer.
# [3] = tested on: HeLa; assay: Cell viability after 48-hr treatment (Table 1); format: cell-based, human; details: 48-hr treatment; XTT assay; read-out: IC50, HeLa
# Method in brief: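 Viable cells were then quantified by a 1-2 hr MTS reaction with absorbance measured at 490 nm.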
# [4] = tested on: OVCAR3; assay: Cell viability after 48-hr treatment (Table 1); format: cell-based, human; details: XTT assay
# Method in brief: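 ES-2 cells were plated at 5,000 cells/well; the other lines used 10,000-20,000 cells/well. MTS reagent was added for 1-2 hr before measuring absorbance at 490 nm.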
# [5] = tested on: HeLa cells; assay: Drug combination index assay; format: cell-based, human; details: 48 hr, read-out: IC50 (single agent, Compusyn)
# Method: The combination indices and a normalized isobologram were calculated using Compusyn software (www.combosyn.com).
# [6] = Tissue levels 48 hr after single i.p. dose; format: in vivo, mouse; details: 48 hr after single i.p. dose of 10 mg/kg
# Method: Tissue was harvested at 48 hr after single-dose intraperitoneal administration in non-tumor bearing mice. Blood was collected by cardiac puncture under anesthesia into heparinized syringes and centrifuged to obtain plasma. Tissues were rapidly dissected and snap frozen in liquid nitrogen. Samples were stored frozen at −70° C. until analysis. […] Tissue homogenates were prepared at a concentration of 200 mg/mL in PBS and further diluted 1:10 in mouse plasma before extraction using acetonitrile containing temazepam (100 ng/mL). Separation was achieved on Waters X-Terra™ C18 (50 mm×2.1 mm i.d., 3 μm) at room temperature using isocratic elution with acetonitrile/water mobile phase (70:30, v/v) containing 0.1% formic acid at a flow rate of 0.2 mL/min. […] Samples were quantitated over the assay range of 10 to 1000 ng/mL or 0.6 to 60 μg/g. […] Cmax and Tmax were the observed values from the mean data. The AUClast was calculated using the log-linear trapezoidal rule to the end of sample collection (AUClast) and extrapolated to infinity (AUC0-∞) by dividing the last quantifiable concentration by the terminal disposition rate constant (λz), which was determined from the slope of the terminal phase of the concentration-time profile. The half-life (T1/2) was determined by dividing 0.693 by λz. Relative bioavailability was calculated as follows: […]
# [7] = tested on: NCI-H929-GFP-luc human tumor cells; assay: NCI-H929 MM tumor in NOG mice; format: in vivo, mouse; details: 20 mg/kg/day i.p., 7 days
# Text: Prior to and at the end of the treatment, mice were imaged for bioluminescence. […] The mice were imaged before and at the end of the treatment for bioluminescence levels. We have previously described the susceptibility of human ovarian cancer lines to proteasome inhibition. […] Prior to and 7 and 14 days after initiation of treatment, the mice were imaged for luciferase activity.
# For TC-1 tumors, C57BL/6 mice (8/group) were challenged subcutaneously with 5×10^4 TC-1 cells/mice. Tumors grew for approximately 7 days until they were palpable, whereupon the mice were weighed and treatment was initiated. Tumor size was measured with a digital caliper and calculated based on the formula: [largest diameter×(perpendicular diameter)2]π/6. Nude mice (8 per group) were inoculated with 1×10^6 EΩ-Luciferase cells i.p. in 100 μL PBS. At day 3 mice were imaged for basal level luminescence expression. […] NOG mice (5 per group) were inoculated with 1×10^6 NCI-H929-GFP-Luc cells i.v., and after 4 weeks, mice were imaged for their luciferase activity and divided into two groups.
SMILES,"levels of p53 and p21 proteins ([1]; 1 μM, 12 h)","poly-ubiquitinated (Poly UB) proteins ([1]; 1 μM, 12 h)",TNFα-induced NFκB activation [2],pIC50 [3],pIC50 [4],pIC50 [5],levels of K48-linked polyubiquitinated proteins ([1]; 4 hr),RA190 detected in brain [6],RA190 detected in kidney [6] [µg/g],RA190 detected in liver [6] [µg/g],RA190 detected in lung [6] [µg/g],RA190 detected in spleen [6] [µg/g],antitumor activity (bioluminescence) [7]
Cl.NCCCC[C@H](NC(=O)OCC1c2ccccc2-c2ccccc21)C(=O)N1C/C(=C\c2ccc(Cl)c(Cl)c2)C(=O)/C(=C/c2ccc(Cl)c(Cl)c2)C1 [RA195],elevated the levels of p53 and p21 proteins,caused the accumulation of poly-ubiqutinated (Poly UB) proteins,inhibited TNFα-induced NFκB activation,,,,,,,,,,
"Cl.N[C@@H](Cc1ccccc1)C(=O)N1CC(=Cc2ccc(Cl)c(Cl)c2)C(=O)C(=Cc2ccc(Cl)c(Cl)c2)C1 [RA190, 3,5-bis(3,4-dichlorobenzylidene)-1-(S-2-amino-3-phenyl)-piperidin-4-one-HCl salt]",,,Inhibits TNFα-Induced NFκB Activation,6.82,5.70,6.74,dramatically increased,not brain,0.61,0.57,0.66,0.59,potent antitumor activity
